The record followed here is patent US9499582B2, “Compositions and methods for increasing carnitine level in muscle tissue” (Oneday—Biotech And Pharma Ltd., priority 2012, dated 2016).

Data set [1] has as its system carnitine level in skeletal muscle tissue. Put plainly: Carnitine levels in mouse tissues after i.p. peptide administration (commercial carnitine kit). The data set is classed as in vivo, Male ICR mice. The protocol: (§1) Male ICR mice were injected i.p. with 250 mg/kg of the DY-65 peptide for 5 consecutive days. Half an hour after the last injection lung, heart, skeletal muscle (femural), brain, liver, kidney and blood were removed, homogenized (100 mg tissue in 200 μl distilled water), centrifuged and filtrated through 30K Microcon® filter. Carnitine analysis was carried out by a commercial kit (BIOVISION™, catalogue number K642-100). n=4 for each group.

The subject of data set [2] is carnitine level in other tissues, including liver and kidneys. Put plainly: Carnitine levels in other mouse tissues (lung, heart, brain, liver, kidney, blood) after i.p. peptide administration. The data set is classed as in vivo. To be noted: male ICR mice, 250 mg/kg i.p. for 5 consecutive days, tissues removed half an hour after last injection. How it is done: as §1

A short description of data set [3]: Toxicity observation in mice treated with the peptide. Type of data set: in vivo. To be noted: male ICR mice, 250 mg/kg i.p. for 5 consecutive days.

Consider “N-acetyl-Cys-Lys-Met-Cys-NH2 (Ac-CKMC-NH2; cysteine pairing not given here) [DY-65]”, for which the “elevation in the level of carnitine in skeletal muscle tissue” value in data set [1] (healthy male ICR mice, 250 mg/kg i.p. for 5 consecutive days, femural skeletal muscle removed half an hour after last injection, p<0.05, n=4) is given as “about 150%”. In addition, the “elevation in carnitine level in other tissues, including liver and kidneys” value in data set [2] is “did not demonstrate a significant elevation in carnitine level”. In data set [3], the toxicity effects result is “no toxicity effects were observed”.
Consider “N-acetyl-Cys-Met-Lys-Cys-NH2 (Ac-CMKC-NH2; cysteine pairing not given here) [DY-70, reference compound]”, for which the “increased carnitine levels compared to baseline levels in any of the tissues examined” value in data set [1] (experiment of Example 1 repeated, all tissues examined (lung, heart, skeletal muscle, brain, liver, kidney, blood)) is listed as “did not result in increased carnitine levels”.
